Assay results from article PMC7115544 (European Journal of Medicinal Chemistry, 2010).
Read-outs that look alike come from different tables or passages of the source.

B1: UDA: reference substance in Table 4, not defined in the text (protein, UniProt P11218 24-372, looked up)
Lectin/endochitinase 1: QRCGSQGGGGTCPALWCCSIWGWCGDSEPYCGRTCENKCWSGERSDHRCGAAVGNPPCGQDRCCSVHGWCGGGNDYCSGSKCQYRCSSSVRGPRVALSGNSTANSIGNVVVTEPLFDQMFSHRKDCPSQGFYSYHSFLVAAESFPAFGTIGDVATRKREVAAFLAHISQATSGERSDVENPHAWGLCHINTTTVTENDFCTSSDWPCAAGKKYSPRGPIQLTHNFNYGLAGQAIGEDLIQNPDLVEKDPIISFKTALWFWMSQHDNKPSCHDIVLNANSAANRIPNKGVIGNIISRAFGHDDFAVRSSSIGFYKRYCDMLGVSYGHDLKYWFDNTPSSEFQRIQMRVAA

Legend:
Feline Herpes Virus = assay: Anti-Feline Herpes Virus activity in CRFK cell cultures; type: cell-based; settings: for EC50: CRFK, read-out: EC50 Feline Herpes Virus
Reovirus-1 = assay: organism not typed; type: cell-based; settings: Vero, read-out: EC50 Reovirus-1
Vero cell cultures = settings: African green monkey
Para influenza-3 virus = assay: organism not typed; type: cell-based; settings: Vero, read-out: EC50 Para influenza-3 virus
HEL cell cultures = settings: human
HeLa cell cultures = settings: human
MDCK cells [1] = assay: Cytotoxicity in MDCK cell cultures; type: cell-based, canine
[2] = test system: Vesicular stomatitis virus; assay: microbe, parasite or virus in culture; type: cell-based; settings: HEL, read-out: EC50 Vesicular stomatitis virus
Vaccinia virus = assay: microbe, parasite or virus in culture; type: cell-based; settings: Orthopoxvirus vaccinia, HEL, read-out: EC50 Vaccinia virus
in vitro = settings: dog
[3] = test system: Herpes simplex virus-1 TK- KOS ACVr; type: cell-based
[4] = test system: Herpes simplex virus-1 (KOS); assay: microbe, parasite or virus in culture; type: cell-based
[5] = test system: Herpes simplex virus-2 (G); assay: microbe, parasite or virus in culture; type: cell-based
Influenza B = assay: microbe, parasite or virus in culture; type: cell-based
MDCK cells [6] = test system: MDCK cells
[7] = test system: Feline Corona Virus (FIPV); assay: Anti-Feline Corona Virus activity in CRFK cell cultures; type: cell-based; settings: MTS assay
[8] = microscopically detectable alteration of normal cell morphology

| Molecule | EC50 (Feline Herpes Virus) | EC50 (Reovirus-1) | Minimum cytotoxic concentration (Vero cell cultures) [µg/mL] | EC50 (Para influenza-3 virus) | Minimum cytotoxic concentration (HEL cell cultures) | further results |
| --- | --- | --- | --- | --- | --- | --- |
| COc1ccc(/C=N/n2c(-c3ccccc3)nc3ccccc3c2=O)cc1 [Compound 2c, 3-[(4-Methoxy-benzylidine)-amino]-2-phenyl-3H-quinazolin-4one] | > 4 µg/mL | > 20 µg/mL | 100 | > 20 µg/mL | – | – |
| O=c1c2ccccc2nc(-c2ccccc2)n1/N=C/c1ccc(Cl)cc1 [Compound 2j, 3-[(4-Chloro-benzylidine)-amino]-2-phenyl-3H-quinazolin-4one] | > 20 µg/mL | > 4 µg/mL | – | > 4 µg/mL | 100 µg/mL | – |
| C/C(=N\n1c(-c2ccccc2)nc2ccccc2c1=O)c1ccccc1 [Compound 2h, 2-Phenyl-3(1-phenyl-ethylideneamino)-3H-quinazolin-4one] | > 0.8 µg/mL | > 20 µg/mL | 100 | > 20 µg/mL | >100 µg/mL | Minimum cytotoxic concentration (HeLa cell cultures): >100 µg/mL; Cytotoxicity Minimum cytotoxic concentration (MDCK cells [1]; [8]): 100 µg/mL |
| COc1ccc(/C=N/n2c(-c3ccccc3)nc3ccccc3c2=O)cc1O [Compound 2k, 3-[(3-Hydroxy-4-methoxy-benzylidine)-amino]-2-phenyl-3H-quinazolin-4one] | > 20 µg/mL | > 20 µg/mL | 100 | > 20 µg/mL | 100 µg/mL | – |
| Nc1nc(O)c2ncn(COC(CO)CO)c2n1 [Ganciclovir, reference compound] | 0.8 µM | – | – | – | >100 µM | EC50 [2]: > 100 µM; EC50 (Vaccinia virus): > 100 µM |
| COc1ccccc1/C=N/n1c(-c2ccccc2)nc2ccccc2c1=O [Compound 2l, 3-[(2-Methoxy-benzylidine)-amino]-2-phenyl-3H-quinazolin-4one] | > 4 µg/mL | > 20 µg/mL | 100 | > 20 µg/mL | 100 µg/mL | – |
| CC(N)C12CC3CC(CC(C3)C1)C2 (stereo not shown) [Rimantadin] | – | – | – | – | – | CC50 (in vitro): 472 µM |
| O=c1c2ccccc2nc(-c2ccccc2)n1/N=C/c1ccccc1O [Compound 2a, 3-[(2-Hydroxy-benzylidine)-amino]-2-phenyl-3H-quinazolin-4one] | > 4 µg/mL | – | 100 | > 20 µg/mL | 100 µg/mL | selectivity index, herpes simplex virus-1 TK- KOS ACVr [3]: 100; selectivity index, herpes simplex virus-1 (KOS) [4]: 100; Cytotoxicity Minimum cytotoxic concentration (MDCK cells [1]; [8]): ≥0.8 µg/mL; selectivity index, herpes simplex virus-2 (G) [5]: 100 |
| O=c1c2ccccc2nc(-c2ccccc2)n1/N=C/c1ccc(O)cc1 [Compound 2g, 3-[(4-Hydroxy-benzylidine)-amino]-2-phenyl-3H-quinazolin-4one] | > 20 µg/mL | > 20 µg/mL | 100 | > 20 µg/mL | 100 µg/mL | Minimum cytotoxic concentration (HeLa cell cultures): 100 µg/mL |
| C/C(=N\n1c(-c2ccccc2)nc2ccccc2c1=O)c1ccc(O)cc1 [Compound 2i, 3-[1-(4-Hydroxy-phenyl)-ethylideneamino]-2-phenyl-3H-quinazolin-4one] | > 100 µg/mL | > 100 µg/mL | >100 | > 100 µg/mL | >100 µg/mL | Minimum cytotoxic concentration (HeLa cell cultures): >100 µg/mL; Cytotoxicity Minimum cytotoxic concentration (MDCK cells [1]; [8]): >100 µg/mL |
| NC(=O)c1ncn([C@@H]2O[C@H](CO)[C@@H](O)[C@H]2O)n1 [Ribavirin, reference compound] | – | > 250 µM | – | – | – | EC50 ([4]; Human alphaherpesvirus 1, HEL, read-out: EC50 Herpes simplex virus-1 (KOS)): > 250 µM; Cytotoxicity Minimum cytotoxic concentration (MDCK cells [1]; reference compounds): ≥100 µM; EC50 ([5]; Human alphaherpesvirus 2, HEL, read-out: EC50 Herpes simplex virus-2 (G)): > 250 µM; EC50 (Vaccinia virus): > 250 µM; EC50 (Influenza B; Influenza B virus, MDCK, read-out: Antiviral EC50 Influenza B Visual CPE score): 9 µM |
| NC12CC3CC(CC(C3)C1)C2 [Amantadin, reference compound] | – | – | – | – | – | Cytotoxicity Minimum cytotoxic concentration (MDCK cells [1]; reference compounds): >1000 µM; CC50 (in vitro): > 1000 µM |
| O=c1c2ccccc2nc(-c2ccccc2)n1/N=C/c1ccccc1 [Compound 2f, 3-(Benzylidine-amino)-2-phenyl-3H-quinazolin-4one] | > 0.8 µg/mL | > 4 µg/mL | – | > 4 µg/mL | – | – |
| Oseltamivir carboxylate | – | – | – | – | – | CC50 (MDCK cells [6]): > 100 µM; Cytotoxicity Minimum cytotoxic concentration (MDCK cells [1]; reference compounds): >100 µM; EC50 (Influenza B; read-out: Antiviral EC50 Influenza B MTS, […], MTS assay, reference compounds): 1.5 µM |
| O=c1c2ccccc2nc(-c2ccccc2)n1/N=C/c1cccc([N+](=O)[O-])c1 [Compound 2b, 3-[(3-Nitro-benzylidine)-amino]-2-phenyl-3H-quinazolin-4one] | > 4 µg/mL | > 4 µg/mL | – | > 4 µg/mL | ≥20 µg/mL | – |
| Nc1ncnc2c1ncn2C[C@H](O)CO [(S)-DHPA, reference compound] | – | > 250 µM | – | > 250 µM | – | – |
| B1 | – | – | – | – | – | EC50 Feline Herpes Virus (Feline Herpes Virus; CRFK cell cultures, MTS assay): 53.1 µg/mL; EC50 Feline Corona Virus (FIPV) [7]: 11.7 µg/mL |
